In ChEMBL document CHEMBL1126795, “Amesergide and structurally related nor-D-ergolines: 5HT2 receptor interactions in the rat” (J Med Chem, 1993):

Test: Concentration required to inhibit pressor response to serotonin after 15 min i.v. administration of compound mediated via activation of vascular 5-HT2 receptors in rat
Assay type: functional, organism-based

`CN(CCC(=O)NC1CCCCC1)[C@H]1Cc2cccc3[nH]cc(c23)C1` showed a Concentration of 1 mg/kg.
In the case of `CN(CCC(=O)NC1CCCCC1)[C@@H]1Cc2cccc3[nH]cc(c23)C1`, the Concentration was 1 mg/kg.
`CCCn1cc2c3c(cccc31)C[C@@H](N(C)CCC(=O)NC1CCCCC1)C2` showed a Concentration of 1 mg/kg.
